Reference: patent US8933015B2, “Macrocyclic inhibitors of flaviviridae viruses” (Gilead Sciences, Inc., priority 2010, dated 2015)

Conditions: from C=CCC[C@H](CC(=O)N[C@H](C(=O)N[C@@H](Cc1cccc(O[Si](C)(C)C(C)(C)C)c1)C(=O)N1CCC[C@@H](C(=O)O[C@H](C)c2cccc(C=C)c2)N1)C(C)C)OC; rcm bond; 22-membered ring; Hoveyda-Grubbs II; DCE; 2.63 mM; 80.0 °C; 1.5 h

Question: For `CO[C@@H]1CC/C=C/c2cccc(c2)[C@@H](C)OC(=O)[C@@H]2CCCN(N2)C(=O)[C@H](Cc2cccc(O[Si](C)(C)C(C)(C)C)c2)NC(=O)[C@H](C(C)C)NC(=O)C1`, which ring closure, isolated yield is on record?
Answer: 46%
